Experimental data as given in the kinase profiling compilation of Christmann-Franck et al. (2016).
Each block holds one compound with its values, some of them ahead of it.

Legend:
Test in all cases: split-luciferase competition binding
[1] = molecular target: PRKCE (human) (UniProt Q02156); conditions: compound 10.0 µM
[2] = molecular target: RPS6KA2 KD1 (human) (UniProt Q15349); conditions: compound 10.0 µM
[3] = molecular target: PKN1 (human) (UniProt Q16512); conditions: compound 10.0 µM
[4] = molecular target: RPS6KA6 KD1 (human) (UniProt Q9UK32); conditions: compound 10.0 µM
[5] = molecular target: PRKCQ (human) (UniProt Q04759); conditions: compound 10.0 µM
[6] = molecular target: PDPK1 (human) (UniProt O15530); conditions: compound 10.0 µM
Sequence of PDPK1 (human) (O15530 whole entry, looked up): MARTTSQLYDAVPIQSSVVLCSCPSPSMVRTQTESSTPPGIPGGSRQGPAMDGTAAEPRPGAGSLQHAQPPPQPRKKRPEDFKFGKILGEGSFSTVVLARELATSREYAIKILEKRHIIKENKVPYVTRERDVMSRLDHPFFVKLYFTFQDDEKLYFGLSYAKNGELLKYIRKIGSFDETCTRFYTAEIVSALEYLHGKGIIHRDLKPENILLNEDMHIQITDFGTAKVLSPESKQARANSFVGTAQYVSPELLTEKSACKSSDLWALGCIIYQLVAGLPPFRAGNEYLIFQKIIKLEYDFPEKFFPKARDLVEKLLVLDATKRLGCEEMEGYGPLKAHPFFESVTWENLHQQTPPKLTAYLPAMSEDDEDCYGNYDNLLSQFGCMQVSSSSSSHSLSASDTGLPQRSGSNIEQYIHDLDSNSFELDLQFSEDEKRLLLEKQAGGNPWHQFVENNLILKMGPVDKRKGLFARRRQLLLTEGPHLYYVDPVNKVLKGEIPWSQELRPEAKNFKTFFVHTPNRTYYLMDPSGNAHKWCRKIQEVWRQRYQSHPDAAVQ

[7] = molecular target: DMPK (human) (UniProt Q09013); conditions: compound 10.0 µM
[8] = molecular target: PRKACB (human) (UniProt P22694); conditions: compound 10.0 µM
[9] = molecular target: STK32B (human) (UniProt Q9NY57); conditions: compound 10.0 µM
[10] = molecular target: RPS6KA4 KD1 (human) (UniProt O75676); conditions: compound 10.0 µM
[11] = molecular target: PRKX (human) (UniProt P51817); conditions: compound 10.0 µM
Sequence of PRKX (human) (P51817 whole entry, looked up): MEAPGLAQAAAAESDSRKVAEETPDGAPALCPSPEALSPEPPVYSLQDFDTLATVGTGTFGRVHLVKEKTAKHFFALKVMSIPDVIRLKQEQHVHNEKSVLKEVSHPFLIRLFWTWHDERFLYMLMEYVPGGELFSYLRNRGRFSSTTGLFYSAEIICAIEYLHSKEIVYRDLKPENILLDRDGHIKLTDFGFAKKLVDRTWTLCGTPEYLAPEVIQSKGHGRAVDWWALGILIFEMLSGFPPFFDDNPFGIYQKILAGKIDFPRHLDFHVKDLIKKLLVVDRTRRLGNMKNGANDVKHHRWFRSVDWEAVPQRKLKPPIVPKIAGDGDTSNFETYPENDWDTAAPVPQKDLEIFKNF

[12] = molecular target: AURKC (human) (UniProt Q9UQB9); conditions: compound 10.0 µM
Sequence of AURKC (human) (Q9UQB9 whole entry, looked up): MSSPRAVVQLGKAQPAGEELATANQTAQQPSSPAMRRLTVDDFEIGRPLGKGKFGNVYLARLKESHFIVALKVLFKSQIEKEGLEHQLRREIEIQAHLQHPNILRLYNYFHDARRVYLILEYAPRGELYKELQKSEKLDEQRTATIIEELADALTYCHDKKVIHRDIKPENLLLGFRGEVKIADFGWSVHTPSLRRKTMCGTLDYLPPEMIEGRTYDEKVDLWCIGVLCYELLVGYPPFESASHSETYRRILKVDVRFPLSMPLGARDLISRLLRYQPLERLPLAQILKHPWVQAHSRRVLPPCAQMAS

[13] = molecular target: AKT1 (human) (UniProt P31749); conditions: compound 10.0 µM
[14] = molecular target: AURKA (human) (UniProt O14965); conditions: compound 10.0 µM
[15] = molecular target: RPS6KA5 KD1 (human) (UniProt O75582); conditions: compound 10.0 µM
[16] = molecular target: RPS6KA3 KD1 (human) (UniProt P51812); conditions: compound 10.0 µM
[17] = molecular target: PRKCG (human) (UniProt P05129); conditions: compound 10.0 µM
[18] = molecular target: PRKCD (human) (UniProt Q05655); conditions: compound 10.0 µM
[19] = molecular target: AKT2 (human) (UniProt P31751); conditions: compound 10.0 µM
Sequence of AKT2 (human) (P31751 whole entry, looked up): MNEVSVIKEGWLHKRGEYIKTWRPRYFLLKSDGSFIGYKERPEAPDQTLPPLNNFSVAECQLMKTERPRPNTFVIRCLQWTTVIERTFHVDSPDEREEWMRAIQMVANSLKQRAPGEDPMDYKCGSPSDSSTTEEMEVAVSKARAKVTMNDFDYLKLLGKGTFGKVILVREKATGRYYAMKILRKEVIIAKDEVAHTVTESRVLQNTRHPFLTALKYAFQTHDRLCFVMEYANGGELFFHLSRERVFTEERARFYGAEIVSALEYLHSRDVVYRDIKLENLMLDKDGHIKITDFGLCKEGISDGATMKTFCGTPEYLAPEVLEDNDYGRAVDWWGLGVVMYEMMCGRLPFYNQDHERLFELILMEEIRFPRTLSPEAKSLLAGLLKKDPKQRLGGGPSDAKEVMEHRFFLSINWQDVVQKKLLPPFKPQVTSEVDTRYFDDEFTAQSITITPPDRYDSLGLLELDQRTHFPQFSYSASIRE

[20] = molecular target: AKT3 (human) (UniProt Q9Y243); conditions: compound 10.0 µM
Sequence of AKT3 (human) (Q9Y243 whole entry, looked up): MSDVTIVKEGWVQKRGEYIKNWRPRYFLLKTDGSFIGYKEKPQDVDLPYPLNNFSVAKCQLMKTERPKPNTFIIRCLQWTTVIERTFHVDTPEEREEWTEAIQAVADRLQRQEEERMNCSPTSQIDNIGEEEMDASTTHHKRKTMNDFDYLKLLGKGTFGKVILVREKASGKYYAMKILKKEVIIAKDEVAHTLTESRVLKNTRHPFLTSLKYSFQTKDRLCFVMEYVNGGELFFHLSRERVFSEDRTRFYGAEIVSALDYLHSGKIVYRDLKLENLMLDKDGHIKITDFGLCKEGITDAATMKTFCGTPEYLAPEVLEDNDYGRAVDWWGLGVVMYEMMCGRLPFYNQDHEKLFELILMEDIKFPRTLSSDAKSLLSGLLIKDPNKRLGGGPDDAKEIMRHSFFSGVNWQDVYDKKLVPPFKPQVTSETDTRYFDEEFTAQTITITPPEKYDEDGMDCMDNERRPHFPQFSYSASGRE

[21] = molecular target: PRKCH (human) (UniProt P24723); conditions: compound 10.0 µM
[22] = molecular target: AURKB (human) (UniProt Q96GD4); conditions: compound 10.0 µM
[23] = molecular target: SGK2 (human) (UniProt Q9HBY8); conditions: compound 10.0 µM
[24] = tested on: PRKACA (mouse); conditions: compound 10.0 µM; accession and sequence are those of the human protein
[25] = molecular target: PRKCI (human) (UniProt P41743); conditions: compound 10.0 µM
Sequence of PRKCI (human) (P41743 whole entry, looked up): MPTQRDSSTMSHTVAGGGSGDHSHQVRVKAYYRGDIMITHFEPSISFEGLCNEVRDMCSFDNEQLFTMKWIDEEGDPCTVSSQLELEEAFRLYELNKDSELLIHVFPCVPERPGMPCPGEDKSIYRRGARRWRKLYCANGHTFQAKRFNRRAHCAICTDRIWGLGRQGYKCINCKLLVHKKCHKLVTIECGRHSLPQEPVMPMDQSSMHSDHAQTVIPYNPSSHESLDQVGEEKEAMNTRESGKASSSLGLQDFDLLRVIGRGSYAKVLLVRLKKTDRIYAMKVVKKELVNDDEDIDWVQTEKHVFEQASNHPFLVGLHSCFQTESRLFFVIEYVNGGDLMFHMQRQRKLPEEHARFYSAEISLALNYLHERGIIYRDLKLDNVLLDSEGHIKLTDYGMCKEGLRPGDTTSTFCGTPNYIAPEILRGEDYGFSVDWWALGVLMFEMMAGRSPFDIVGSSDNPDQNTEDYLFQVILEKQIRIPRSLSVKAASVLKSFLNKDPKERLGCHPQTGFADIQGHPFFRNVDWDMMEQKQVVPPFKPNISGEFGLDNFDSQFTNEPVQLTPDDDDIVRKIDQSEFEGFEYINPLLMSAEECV

[26] = molecular target: RPS6KA1 KD1 (human) (UniProt Q15418); conditions: compound 10.0 µM
[27] = molecular target: SGK3 (human) (UniProt Q96BR1); conditions: compound 10.0 µM
Sequence of SGK3 (human) (Q96BR1 whole entry, looked up): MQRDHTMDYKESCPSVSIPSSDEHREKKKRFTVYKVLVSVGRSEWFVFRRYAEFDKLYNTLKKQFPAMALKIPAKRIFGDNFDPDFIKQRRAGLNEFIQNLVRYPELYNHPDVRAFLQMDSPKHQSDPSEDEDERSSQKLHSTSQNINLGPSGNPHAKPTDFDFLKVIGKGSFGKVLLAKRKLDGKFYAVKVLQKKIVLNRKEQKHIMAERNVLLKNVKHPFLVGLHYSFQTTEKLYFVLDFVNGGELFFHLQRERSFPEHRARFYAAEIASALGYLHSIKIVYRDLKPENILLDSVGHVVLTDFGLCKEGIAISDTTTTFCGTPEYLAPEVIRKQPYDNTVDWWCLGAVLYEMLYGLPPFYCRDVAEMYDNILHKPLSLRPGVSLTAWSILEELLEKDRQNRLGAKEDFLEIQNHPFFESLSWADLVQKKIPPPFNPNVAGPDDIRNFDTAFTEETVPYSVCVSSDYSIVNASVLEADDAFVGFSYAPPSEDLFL

Sequence of RPS6KA2 KD1 (human) (Q15349 whole entry, looked up): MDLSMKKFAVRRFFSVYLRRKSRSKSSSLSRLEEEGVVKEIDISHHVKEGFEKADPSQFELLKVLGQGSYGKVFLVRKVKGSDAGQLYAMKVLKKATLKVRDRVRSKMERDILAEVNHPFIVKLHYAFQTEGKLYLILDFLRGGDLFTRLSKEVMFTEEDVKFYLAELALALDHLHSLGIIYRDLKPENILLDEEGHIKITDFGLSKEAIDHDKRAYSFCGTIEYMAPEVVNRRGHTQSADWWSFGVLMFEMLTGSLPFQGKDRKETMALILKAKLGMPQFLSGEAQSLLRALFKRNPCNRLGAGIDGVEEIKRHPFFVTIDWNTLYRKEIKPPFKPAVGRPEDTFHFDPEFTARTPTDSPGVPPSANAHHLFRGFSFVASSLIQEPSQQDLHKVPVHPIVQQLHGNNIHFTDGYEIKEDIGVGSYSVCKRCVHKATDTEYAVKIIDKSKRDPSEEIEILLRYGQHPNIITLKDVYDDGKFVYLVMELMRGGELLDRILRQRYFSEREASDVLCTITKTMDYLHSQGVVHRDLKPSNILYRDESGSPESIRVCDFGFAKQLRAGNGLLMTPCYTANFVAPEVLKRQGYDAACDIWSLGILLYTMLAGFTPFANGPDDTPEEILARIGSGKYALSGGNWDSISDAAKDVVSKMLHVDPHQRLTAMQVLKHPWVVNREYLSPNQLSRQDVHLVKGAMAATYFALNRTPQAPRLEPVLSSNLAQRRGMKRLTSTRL

SMILES: N#CC(=C(\N)Sc1ccccc1N)/C(C#N)=C(/N)Sc1ccccc1N
inhibition [1]: 0%
inhibition [2]: 0%
inhibition [3]: 0%
inhibition [4]: 0%
inhibition [5]: 0%
inhibition [6]: 0%
inhibition [7]: 0%
inhibition [8]: 0%
inhibition [9]: 0%
inhibition [10]: 0%
inhibition [11]: 0%
inhibition [12]: 0%
inhibition [13]: 0%
inhibition [14]: 0%
inhibition [15]: 0%
inhibition [16]: 0%
inhibition [17]: 0%
inhibition [18]: 0%
inhibition [19]: 0%
inhibition [20]: 0%
inhibition [21]: 0%
inhibition [22]: 0%
inhibition [23]: 0%
inhibition [24]: 0%
inhibition [25]: 3%
inhibition [26]: 0%
inhibition [27]: 0%

SMILES: Oc1ccc(-c2nc(-c3ccc(F)cc3)c(-c3ccncc3)[nH]2)cc1
inhibition [1]: 0%
inhibition [2]: 0%
inhibition [3]: 0%
inhibition [4]: 0%
inhibition [5]: 0%
inhibition [6]: 0%
inhibition [7]: 0%
inhibition [8]: 0%
inhibition [9]: 11%
inhibition [10]: 0%
inhibition [11]: 13%
inhibition [12]: 21%
inhibition [13]: 5%
inhibition [14]: 0%
inhibition [15]: 0%
inhibition [16]: 0%
inhibition [17]: 0%
inhibition [18]: 7%
inhibition [19]: 0%
inhibition [20]: 0%
inhibition [21]: 0%
inhibition [22]: 0%
inhibition [23]: 0%
inhibition [24]: 11%
inhibition [25]: 0%
inhibition [26]: 0%
inhibition [27]: 0%

SMILES: CC1=C(O)C(=O)[C@@H]2OC2C1=O (some centres not stated)
inhibition [1]: 0%
inhibition [2]: 0%
inhibition [3]: 0%
inhibition [4]: 5%
inhibition [5]: 0%
inhibition [6]: 2%
inhibition [7]: 0%
inhibition [8]: 0%
inhibition [9]: 36%
inhibition [10]: 0%
inhibition [11]: 0%
inhibition [12]: 0%
inhibition [13]: 0%
inhibition [14]: 0%
inhibition [15]: 2%
inhibition [16]: 0%
inhibition [17]: 0%
inhibition [18]: 0%
inhibition [19]: 0%
inhibition [20]: 0%
inhibition [21]: 7%
inhibition [22]: 0%
inhibition [23]: 0%
inhibition [24]: 0%
inhibition [25]: 0%
inhibition [26]: 5%
inhibition [27]: 1%

Now from value to compound:

inhibition [1]: 3%
inhibition [2]: 7%
inhibition [3]: 6%
inhibition [4]: 0%
inhibition [5]: 4%
inhibition [6]: 0%
inhibition [7]: 7%
inhibition [8]: 0%
inhibition [9]: 0%
inhibition [10]: 0%
inhibition [11]: 7%
inhibition [12]: 16%
inhibition [13]: 0%
inhibition [14]: 0%
inhibition [15]: 0%
inhibition [16]: 0%
inhibition [17]: 0%
inhibition [18]: 0%
inhibition [19]: 0%
inhibition [20]: 0%
inhibition [21]: 0%
inhibition [22]: 8%
inhibition [23]: 0%
inhibition [24]: 0%
inhibition [25]: 2%
inhibition [26]: 0%
inhibition [27]: 0%
SMILES: CCN(CC)CCCCN1c2ccccc2Oc2ccc(Cl)cc21

inhibition [1]: 0%
inhibition [2]: 0%
inhibition [3]: 0%
inhibition [4]: 0%
inhibition [5]: 0%
inhibition [6]: 0%
inhibition [7]: 0%
inhibition [8]: 0%
inhibition [9]: 0%
inhibition [10]: 0%
inhibition [11]: 0%
inhibition [12]: 8%
inhibition [13]: 0%
inhibition [14]: 3%
inhibition [15]: 0%
inhibition [16]: 0%
inhibition [17]: 0%
inhibition [18]: 1%
inhibition [19]: 0%
inhibition [20]: 0%
inhibition [21]: 0%
inhibition [22]: 0%
inhibition [23]: 0%
inhibition [24]: 7%
inhibition [25]: 0%
inhibition [26]: 0%
inhibition [27]: 0%
SMILES: Cc1ccc(NC(=O)c2cccc(N(C)C)c2)cc1NC(=O)c1ccc(O)cc1

inhibition [1]: 0%
inhibition [2]: 0%
inhibition [3]: 0%
inhibition [4]: 0%
inhibition [5]: 0%
inhibition [6]: 0%
inhibition [7]: 0%
inhibition [8]: 0%
inhibition [9]: 0%
inhibition [10]: 0%
inhibition [11]: 0%
inhibition [12]: 0%
inhibition [13]: 0%
inhibition [14]: 0%
inhibition [15]: 4%
inhibition [16]: 0%
inhibition [17]: 0%
inhibition [18]: 0%
inhibition [19]: 0%
inhibition [20]: 0%
inhibition [21]: 0%
inhibition [22]: 0%
inhibition [23]: 0%
inhibition [24]: 0%
inhibition [25]: 0%
inhibition [26]: 16%
inhibition [27]: 0%
SMILES: O=c1cc(N2CCOCC2)oc2c(-c3ccccc3)cccc12
